Consider three molecules from patent EP0554284B1, “PEPTIDE-BASED INHIBITORS OF HIV REPLICATION” (priority 1990, dated 1996).

One experiment has as its system tat. The conditions noted are these: literature, Green et al; cited from earlier work.
The test system of experiment [1] is variant of TAR which does not bind tat. The experiment is described as follows: RNA gel mobility shift assay, binding to non-functional TAR variant (specificity). Further details: species or system HIV. The conditions noted are these: relative to binding to the non-functional TAR variant; result in words. The method, then:
(§1) TAR-binding affinity of the oligopeptides relative to HIV tat(1-86) and relative to tat fragments representing the tat basic domain, was evaluated by RNA gel mobility shift assay using as ligand a truncated functional form of TAR RNA having the sequence shown below.
Synthesis of the TAR fragment and its variant analogue was accomplished as described by Roy et al. in Genes and Development, 1990, 4:1365. The TAR-binding assay was also performed in the manner reported by Roy et al., supra, which is incorporated herein by reference.

In experiment [2] the test system is truncated functional form of TAR RNA. The experiment is described as follows: RNA gel mobility shift assay, TAR binding. Set-up: species or system HIV. The conditions noted are these: judged relative to tat(1-86) and the oligopeptide representing the tat basic domain; result in words. The method, then: This assay generally involves the incubation of a selected oligopeptide with gel-purified, radio-labelled TAR RNA, or tat-binding fragment of TAR RNA, that has been produced either by direct synthesis or through transcription of a corresponding DNA template. Samples are loaded onto non-denaturing polyacrylamide gel and subjected to electrophoresis, and then migration of labelled RNA through the gel is visualized on gel-exposed, X-ray film. Oligopeptides which bind TAR are identified in this assay by their characteristic, retarded migration on the gel, relative to TAR RNA to which no oligopeptide has bound. In this mobility shift assay, oligopeptides having an "enhanced" affinity for binding TAR RNA will resolve on the gel as bands which, in addition to displaying the retarded migration pattern characteristic of TAR-binding oligopeptides, will also appear with greater intensity and/or size than a band containing TAR RNA bound to tat (1-86).
as §1
Synthesis of the TAR fragment and its variant analogue was accomplished as described by Roy et al. in Genes and Development, 1990, 4:1365. […]

For a further experiment, the system named is HIV (strain NL4-3). The experiment is classed as cell-based. An excerpt: Controls used water in place of peptide.
The test system of another experiment is yeast tRNA. The experiment can be described thus: TAR binding compared with yeast tRNA binding (specificity). The conditions noted are these: result in words.

As to Arg-Lys-Lys-Arg-Arg-Gln-Arg-Arg-Arg, the tat antagonist activity result in the experiment on tat is recorded as “Weak tat antagonist activity”.
Take `CC(=O)N[C@H](CCCNC(=N)N)C(=O)N[C@H](CCCNC(=N)N)C(=O)N[C@H](CCCNC(=N)N)C(=O)N[C@H](CCCNC(=N)N)C(=O)N[C@H](CCCNC(=N)N)C(=O)N[C@H](CCCNC(=N)N)C(=O)N[C@H](CCCNC(=N)N)C(=O)N[C@H](CCCNC(=N)N)C(=O)N[C@H](CCCNC(=N)N)C(N)=O` [peptide 4C, acetyl-[D-Arg]9-NH2]: the “specificity for binding to the functional TAR fragment” value in experiment [1] was “comparable to the wild type basic domain”. In experiment [2], the TAR-binding affinity result is “comparable to the basic domain of wild type tat”. Moreover, the “inhibition of viral replication, as measured by p24 assay” value in the experiment with HIV (strain NL4-3) (HuT78 cells pretreated with 5µM peptide for 7 or 14 days, 10µM after infection, p24 at four and seven days after infection) was not below 95%. Besides, in the experiment with HIV (strain NL4-3) (visual inspection of infected HuT78 cells, same treatment as p24 assay), the formation of syncytia entry is on record as “completely inhibited”. In the experiment on yeast tRNA, the specificity of binding entry is reported as “confirmed”.
On to `CC(=O)N[C@H](CCCNC(=N)N)C(=O)N[C@H](CCCCN)C(=O)N[C@H](CCCCN)C(=O)N[C@H](CCCNC(=N)N)C(=O)N[C@H](CCCNC(=N)N)C(=O)N[C@H](CCC(N)=O)C(=O)N[C@H](CCCNC(=N)N)C(=O)N[C@H](CCCNC(=N)N)C(=O)N[C@H](CCCNC(=N)N)C(N)=O` [peptide 4G], for which the “effects on HIV inhibition” value with HIV (strain NL4-3) (5µM pretreatment of HuT78 cells, 7 or 14 days, result in words) is recorded as “positive effects on HIV inhibition”.
